The text below walks through data of PubChem BioAssay (NCI).

Holding throughout (test): NCI-60 cell line screen, 48 h
The subject of test [1] is NCI-H23 lung.
The subject of test [2] is RXF 393 renal.
Test [3] concerns SK-MEL-5 melanoma.
For test [4], the system named is T-47D breast.
The subject of test [5] is A498 renal.
Test [6] concerns M14 melanoma.
The subject of test [7] is SW-620 colon.
Test [8] deals with CAKI-1 renal.
For test [9], the system named is HCT-116 colon.
Test [10] has as its system HT29 colon.
The subject of test [11] is UACC-257 melanoma.
The subject of test [12] is SK-MEL-2 melanoma.
Test [13] deals with KM12 colon.
In test [14] the test system is MDA-MB-231 breast.
Test [15] concerns ACHN renal.
Test [16] concerns HCC-2998 colon.
Test [17] concerns 786-0 renal.
In test [18] the test system is PC-3 prostate.
Test [19] has as its system SF-539 CNS.
Test [20] has as its system BT-549 breast.

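In this assay, cells in 96-well plates receive the compound at five concentrations for 48 hours. Endpoints are linearly interpolated between the surrounding concentrations. TGI: concentration producing complete growth inhibition.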

For `CC(=O)NC1=N/C(=C\c2ccc(Cl)cc2)C(=O)N1/C=C1\C(=O)Oc2ccccc2C1=O`, the TGI in test [1] is over 100 µM; in test [2] it was over 100 µM; in [3] it was over 100 µM; in test [4] it was over 100 µM; in test [5] it was 57.8 µM; in test [6], over 100 µM. Also, the TGI in test [7], in test [8], in test [9], in test [10], in test [11] and in [12] was over 100 µM each time. Also, the TGI in test [13], in [14], in test [15], in [16], in [17] and in [18] was over 100 µM in each case. This compound yielded a TGI in test [19] of over 100 µM.
`O=C(CC(C(=O)c1ccsc1)c1ccccc1)c1ccccc1` (stereo unspecified): the TGI is 36.1 µM in [1]; over 100 µM in test [2]; over 100 µM in [3]; over 100 µM in test [4]; over 100 µM in [5]; over 100 µM in test [6]. Besides, the TGI in test [7], in test [8], in [9], in [10], in test [11] and in test [13] was over 100 µM in each case. Moreover, the TGI in [15], in [16], in [17] and in test [19] was over 100 µM in each case.
With `CNCCCn1c2ccccc2c2c3c(c(-c4ccsc4)cc21)C(=O)NC3=O`, the TGI was 1.74 µM in [1]; 1.25 µM in [2]; 2.16 µM in test [3]; under 0.0254 µM in test [5]; 1.7 µM in [6]; 2.92 µM in test [7]. Further, the TGI in test [8] amounted to 2.44 µM; in [9], 2.79 µM; in [10], 2.56 µM; in test [11] it was 3.12 µM; in [14] it was 3.06 µM; in test [15], 1.23 µM. The TGI in [16] is 55.5 µM; in [17] it was 1.48 µM; in test [18], 1.78 µM; in [20], 13.7 µM; in [19], 0.182 µM.
With `Cc1cc(C(F)(F)F)cc(-n2nc(NS(=O)(=O)c3cc(C)c(Cl)cc3S)nc2N)n1`, the TGI in test [2] is over 100 µM; in [3] it was over 100 µM; in test [4], over 100 µM; in test [5], 56.1 µM; in test [6] it was over 100 µM; in test [7], over 100 µM. Moreover, the TGI in test [8], in test [9], in test [10], in test [11], in test [12] and in test [13] was over 100 µM each time. Besides, the TGI in test [14], in [15], in test [16], in [17] and in test [18] was over 100 µM each time.
Regarding `COc1cccc(C2c3cc4c(cc3OC(C)(N3CCCC3)C2C)OCO4)c1` (stereo unspecified), the TGI came out at 71.1 µM in test [1]; 51.9 µM in test [2]; 14.5 µM in test [3]; 64 µM in test [4]; 85.3 µM in test [5]; 13.9 µM in test [6]. Also, the TGI was over 100 µM in [7]; 59.8 µM in test [8]; 26.6 µM in [9]; 15 µM in test [10]; 70 µM in [11]; 11.2 µM in [12]. For the same compound, the TGI was 17.8 µM in test [13]; 27.4 µM in test [14]; 82.3 µM in [15]; 32.8 µM in [16]; over 100 µM in [17]; 62.2 µM in [18]. Further, the TGI in [19] was determined as 37.2 µM.
With `CN(C)/N=C1/CCC(C(F)(F)F)(C(F)(F)F)O1`, the TGI in test [1] was 98.4 µM; in [2], over 100 µM; in [3] it was 52.6 µM; in test [4] it was over 100 µM; in [5], 53.1 µM; in test [6], 68.1 µM. Moreover, the TGI in [7] is over 100 µM; in test [8], over 100 µM; in test [9] it was 94 µM; in [10], over 100 µM; in test [12], 90.6 µM; in test [13], 48.8 µM. The TGI was 57.4 µM in test [14]; over 100 µM in test [15]; over 100 µM in test [16]; 93.4 µM in [17]; over 100 µM in test [18]; over 100 µM in [19].
With `CC1CN=C(N(C(=O)Nc2ccccc2)c2ccc(Cl)c(Cl)c2)S1` (stereo unspecified), the TGI in test [1] was over 100 µM; in test [3] it was 34.5 µM; in [4] it was over 100 µM; in [5], 64.9 µM; in test [6], over 100 µM; in test [7], over 100 µM. Besides, the TGI in test [8] is over 100 µM; in [9], over 100 µM; in [10], 78 µM; in test [11] it was over 100 µM; in test [12] it was 40.4 µM; in [13], over 100 µM. Moreover, the TGI is over 100 µM in test [14]; over 100 µM in test [15]; 69.9 µM in test [16]; 93.8 µM in test [17]; over 100 µM in [18]; over 100 µM in [19].
Consider `COC1(OC)CCCc2c1no[n+]2[O-]`, for which the TGI in test [1], in test [2], in [3], in [5], in [6] and in test [7] was over 100 µM in each case. Further, the TGI in test [8], in test [9], in test [10], in test [11], in test [12] and in test [13] was over 100 µM in each case. Moreover, the TGI in [14], in test [15], in test [16], in test [17], in test [18] and in test [19] was over 100 µM throughout.
Consider `Cn1c2c(c3ccccc31)CCN1C(=O)CN(C(=O)C3CCCCC3)CC21` (stereo unspecified), for which the TGI in test [1], in test [2], in test [3], in test [4], in test [6] and in [7] was over 100 µM in each case. In addition, the TGI in [9], in test [10], in test [11], in test [12], in [13] and in test [14] was over 100 µM in each case. Also, the TGI in [15], in test [16], in [17], in test [18] and in test [19] was over 100 µM throughout.
Take `CC1CN=C(N(C(=O)Nc2ccc(Cl)c(Cl)c2)c2ccccc2)S1` (stereo unspecified): the TGI was over 100 µM in [1]; 50.8 µM in test [3]; over 100 µM in test [4]; over 100 µM in test [5]; over 100 µM in test [6]; over 100 µM in test [7]. Besides, the TGI in test [8] is over 100 µM; in test [9], over 100 µM; in [10] it was over 100 µM; in test [11], over 100 µM; in test [12] it was 97.1 µM; in [13], over 100 µM. Moreover, the TGI in test [14], in test [15], in test [16], in test [17], in test [18] and in test [19] was over 100 µM throughout.
On to `c1ccc2c(c1)SCCC2NC1=NCCO1` (stereo unspecified), for which the TGI in [1], in test [2], in test [3], in test [4], in [5] and in test [6] was over 100 µM throughout. Also, the TGI in test [7], in test [8], in [9], in test [10], in [12] and in test [13] was over 100 µM throughout. The TGI in test [14], in test [15], in [16], in [17], in [18] and in test [19] was over 100 µM in each case.
As for `C=C(Nc1nc2ccc(C)cc2s1)C(=O)C(CC)C(=O)C(CC)CC1C(=O)NC(=O)NC1=O` (stereo unspecified), the TGI in test [1], in test [2], in [3], in test [6], in [7] and in [8] was over 100 µM in each case. In addition, the TGI in [9], in test [11], in test [12], in test [13], in test [14] and in test [15] was over 100 µM each time. The TGI in test [16], in test [17], in [18], in test [20] and in [19] was over 100 µM each time.
Take `COC(=O)c1nsc(OC)c1Cl`: the TGI in test [1], in test [2], in [3], in [6], in test [7] and in test [8] was over 100 µM in each case. In addition, the TGI in test [9], in test [10], in test [11], in [13], in [14] and in [16] was over 100 µM in each case. The TGI in test [17], in [18], in test [20] and in test [19] was over 100 µM each time.
In the case of `Cc1ccc(NC(=O)CCc2nnc(N)o2)cc1`, the TGI in test [1], in test [2], in test [3], in [5], in [6] and in test [7] was over 100 µM each time. Besides, the TGI in test [8], in test [9], in [10], in [11], in [12] and in [13] was over 100 µM each time. For the same compound, the TGI in [15], in [16], in test [17] and in test [19] was over 100 µM each time.
`[N-]=[N+]=NCc1nc(N)c2c3c(sc2n1)CCCC3`: the TGI in test [1] stood at 3.78 µM; in test [2], 19.3 µM; in test [3], 3.41 µM; in test [4] it was 63.3 µM; in test [5], 45 µM; in test [6], 17.7 µM. Moreover, the TGI in test [7] is over 100 µM; in test [8], 8.32 µM; in [9] it was 12 µM; in test [10], 3.15 µM; in [11], 25.8 µM; in [12], 27.9 µM. The TGI in test [13] amounted to 2.86 µM; in test [14], 80.6 µM; in test [15], 14.1 µM; in test [16], 4.76 µM; in [17], 1.55 µM; in [18], 6.72 µM. The TGI in [19] was 3.46 µM.
Consider `COCOC1C=CCCCC2=CC(C)=C(CC1)O2` (stereo unspecified), for which the TGI in test [1], in test [2], in [3], in [5], in test [6] and in test [7] was over 100 µM in each case. Moreover, the TGI in [8], in test [9], in [10], in [11], in test [13] and in test [14] was over 100 µM in each case. For the same compound, the TGI in test [15], in [16], in test [17], in [18], in [20] and in [19] was over 100 µM in each case.
